Common to all, as to assay: growth of human tumour cells (NCI), 48 h
Assay [1] deals with EKVX NSCLC.
For assay [2], the system named is UO-31 renal.
Assay [3] concerns M14 melanoma.
The test system of assay [4] is RPMI-8226 leukemia.
Assay [5] deals with UACC-62 melanoma.
Assay [6] deals with SNB-75 CNS.
Assay [7] relates to HCC-2998 colon.
Assay [8] has as its system BT-549 breast.
Assay [9] concerns MCF7 breast.

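Cells were grown in 96-well plates and exposed to each compound for 48 hours at five concentrations; endpoints were interpolated linearly between bracketing concentrations, or set to the highest concentration if not reached. GI50 = concentration required for 50% inhibition of growth. Definition used: TGI = concentration required for complete inhibition of growth.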

Regarding `COc1ccccc1NC(=O)c1nc2ccc([N+](=O)[O-])cc2nc1C`, the TGI in [1], in assay [2], in assay [3], in assay [4], in assay [5] and in [6] was more than 100 µM in each case. This molecule also came in with a TGI in assay [7] of more than 100 µM.
As to `O=C(/C(=C\c1ccc(Cl)cc1)c1ccccc1)c1ccccc1`, the TGI in [1], in [2], in [3], in [4], in assay [5] and in [6] was more than 100 µM throughout. Besides, in assay [7], the TGI is more than 100 µM.
As for `COc1ccc(C(=O)C(c2ccc(OCc3ccccc3)cc2)c2ccc(OCc3ccccc3)cc2)cc1`, the TGI in assay [1], in assay [2], in [3], in assay [4], in [5] and in assay [6] was more than 100 µM in each case. Further, the TGI in [7] is more than 100 µM.
Take `CN1CCN(C)C12C=CC=CC21CC1`: the TGI in assay [1], in [2], in [3], in assay [4], in assay [5] and in assay [6] was more than 100 µM in each case. The molecule further showed a TGI in assay [7] of more than 100 µM.
In the case of `CC1=CC(N2C(=O)C(C)=CC2O)NC1=O` (centres undefined), the TGI in assay [1], in assay [2], in [3], in assay [6] and in assay [7] was more than 100 µM each time.
For `Nc1cc(=O)n(-c2ccccc2)c(=S)n1-c1ccccc1`, the TGI in assay [1], in assay [2], in [3], in assay [4], in [5] and in assay [6] was more than 100 µM throughout. Also, in assay [7], the TGI is more than 100 µM.
On to `O=C(COC(=O)c1cccc2c(=O)c3ccccc3[nH]c12)Nc1ccc(C(=O)O)cc1`, for which the TGI in assay [1], in assay [2], in assay [3], in assay [5], in assay [6] and in assay [7] was more than 100 µM each time.
As to `CC(=O)NC1C(OCc2ccccc2)OC(COC(=O)CCCCCCCCCCNc2ccc([N+](=O)[O-])c3[nH]c4ccccc4c(=O)c23)C(O)C1OC(C)C(=O)NC(C)C(=O)NC(CCC(N)=O)C(=O)OCc1ccccc1` (centres undefined), the TGI in assay [1], in assay [2], in assay [3], in [4], in assay [5] and in assay [6] was more than 100 µM each time. For the same molecule, in assay [7], the TGI was more than 100 µM.
With `COC(=O)C1=C(C(=O)OC)C2(C)Nc3ccccc3C2=C(c2ccccc2)C1` (centres undefined), the TGI was determined as 70.5 µM in [1]; 38.2 µM in [2]; 31.8 µM in assay [3]; 29.6 µM in assay [4]; 38.5 µM in assay [5]; 64.2 µM in assay [7].
Take `CC(=O)c1cc(C(=O)c2ccc3c(c2)Sc2ccccc2N3)c2cc(C)ccn12`: the GI50 was 0.0873 µM in assay [1]; 0.0515 µM in [2]; 0.251 µM in assay [8]; 0.0345 µM in [9]; 0.0593 µM in [3]; 0.233 µM in assay [4]. Further, the GI50 was 0.0416 µM in assay [6] and 0.247 µM in assay [7]. Moreover, the TGI in assay [1], in assay [2], in [8], in assay [9], in assay [3] and in assay [4] was more than 100 µM in each case. The TGI in assay [6] is more than 100 µM; in assay [7], 20.6 µM.
With `Clc1ccc(-c2c(C3=NCCCN3)nnn2-c2ccccc2)cc1`, the TGI in assay [1], in assay [2], in assay [3], in assay [5], in [6] and in [7] was more than 100 µM each time.
For `Clc1cc(Cl)cc(N2N=C(c3cccc(Nc4ccncc4)c3)CC2c2ccc3c(c2)OCO3)c1` (centres undefined), the GI50 is 1.61 µM in assay [1]; 1.36 µM in assay [2]; 1.7 µM in assay [8]; 1.89 µM in assay [9]; 1.75 µM in [3]; 1.71 µM in assay [5]. Besides, the GI50 is 1.38 µM in [6] and 1.84 µM in assay [7]. In addition, the TGI in [1] came to 3.2 µM; in assay [2] it was 2.67 µM; in [8], 3.3 µM; in [9], 4.17 µM; in assay [3] it was 3.37 µM; in assay [5] it was 3.17 µM. The TGI in assay [6] stood at 2.99 µM; in assay [7] it was 3.37 µM.
In the case of `COc1ccc(C2C=C(c3ccc4c(c3)OCO4)Oc3c2c(=O)oc2ccccc32)cc1OC` (centres undefined), the TGI is more than 100 µM in assay [1]; more than 100 µM in [2]; more than 100 µM in assay [8]; more than 100 µM in assay [9]; more than 100 µM in assay [3]; 5.29 µM in assay [4]. In addition, the TGI is more than 100 µM in [5], 34.2 µM in [6] and 2.26 µM in assay [7].
As to `OCCN1CCN2C=C(C3CCCC4N(CCO)CCN34)CCC21` (centres undefined), the TGI was more than 100 µM in [1]; more than 100 µM in assay [2]; more than 100 µM in assay [3]; 44.9 µM in assay [4]; more than 93.9 µM in [5]; more than 100 µM in assay [6]. The molecule also came in with a TGI in [7] of more than 100 µM.
As to `NNC(=O)N/N=C1\C(=O)N(c2ccc(Cl)c(Cl)c2)C(=O)C(=O)C1c1nc2ccccc2s1` (centres undefined), the TGI in assay [1], in assay [2], in assay [3], in assay [5], in [6] and in assay [7] was more than 100 µM in each case.
